Test results from patent US20130309389A1, “GLYCOSIDE BLENDS” (CARGILL, INCORPORATED, priority 2010, published 2013).

Assay: Trained sensory panel rating of sweetness intensity and bitterness intensity of glycoside solutions
Format: in vivo, human
Details: panel average; for Bitterness: scale 1-15 (caffeine standards); for Sweetness: scale 1-15 (sucrose standards)
Protocol: A 20 person sensory panel was trained to scale sweetness and bitterness. Reference tasting standards were prepared by dissolving respective standard material (sucrose for sweetness and caffeine for bitterness) into reverse osmosis water according to the scale values shown in Table 1 below.
The trained sensory panel evaluated pure and blended solutions of rebaudioside A, rebaudioside B, and rebaudioside D at ratios and concentrations shown in the tables and in FIGS. 1-4. Solutions were made in Evian® water. All solutions were heated to 47° C. for 10 minutes to ensure that all the glycoside material was completely dissolved. The solutions were allowed to cool to room temperature before serving to the panelists. Each solution was given a random 3-digit code and was served to the panelists in random order. Panelists dispensed 1 mL of each solution into their mouths from a pipette. The panelists were then asked to rate the “sweetness intensity” and “bitterness intensity” of the solutions and mark their responses on an un-anchored, 15 cm line ballot. The length of the line directly corresponded to the scale values (1-15) on which the participants were trained.
In order to prepare the panelists' palates, a control solution of commercial rebiana (300 ppm) was the first sample each panelist tasted during a sitting. In between testing samples, the panelists cleansed their palates with water and apple slices. The panelists also waited 5 minutes between each sample. The panelists' responses were measured, compiled, and averaged for each sample.
The figures show the concentration of the blend tested (ppm) as well as the ratio of one glycoside to another in the blend as a percentage. Each blend's sweetness and bitterness was measured by the trained panel. The blend's sweetness is measured as SEV.
Each blend was then compared to an isosweet concentration of the pure glycosides. This value represents the concentration of the pure glycoside needed to achieve the SEV value measured for the blend. Thus, if the value is greater than that of the blend, then a larger concentration of the pure glycoside would be needed to achieve the same sweetness as achieved by the blend (at the lower dosage). The tables also include an isosweet bitterness value for each pure glycoside. This value represents the intensity of bitterness measured for that concentration of pure glycoside. The concentration of the isosweet solution of rebaudioside A, rebaudioside B, or rebaudioside D and the bitterness of the isosweet solutions were calculated by a fit of the pure component sensory response (table 2) to standard psycho-sensory models.

Compound | Bitterness (57 ppm in Evian water) | Sweetness (57 ppm in Evian water) | Bitterness (114 ppm in Evian water) | Sweetness (114 ppm in Evian water) | Bitterness (171 ppm in Evian water) | Sweetness (171 ppm in Evian water) | Bitterness (286 ppm in Evian water) | Sweetness (286 ppm in Evian water) | Bitterness (343 ppm in Evian water) | Sweetness (343 ppm in Evian water) | Bitterness (400 ppm in Evian water) | Sweetness (400 ppm in Evian water) | Bitterness (229 ppm in Evian water) | Sweetness (229 ppm in Evian water) | Bitterness (457 ppm in Evian water) | Sweetness (457 ppm in Evian water) | Bitterness (571 ppm in Evian water) | Sweetness (571 ppm in Evian water) | Bitterness (800 ppm in Evian water) | Sweetness (800 ppm in Evian water)
C=C1C[C@@]23CC[C@H]4[C@@](C)(CCC[C@@]4(C)C(=O)O)[C@@H]2CC[C@]1(O[C@@H]1O[C@H](CO)[C@@H](O)[C@H](O[C@@H]2O[C@H](CO)[C@@H](O)[C@H](O)[C@H]2O)[C@H]1O[C@@H]1O[C@H](CO)[C@@H](O)[C@H](O)[C@H]1O)C3 [Reb B, Rebaudioside B] | 3.9 | 1.8 | 4.2 | 2.7 | 4.3 | 3.6 | 5.0 | 5.8 | 5.1 | 6.5 | 5.8 | 7.6 | – | – | – | – | – | – | – | –
C=C1C[C@@]23CC[C@H]4[C@@](C)(CCC[C@@]4(C)C(=O)O[C@@H]4O[C@H](CO)[C@@H](O)[C@H](O)[C@H]4O)[C@@H]2CC[C@]1(O[C@@H]1O[C@H](CO)[C@@H](O)[C@H](O[C@@H]2O[C@H](CO)[C@@H](O)[C@H](O)[C@H]2O)[C@H]1O[C@@H]1O[C@H](CO)[C@@H](O)[C@H](O)[C@H]1O)C3 [Reb A, Rebaudioside A] | – | – | 4.2 | 3.1 | – | – | – | – | 6.6 | 7.4 | – | – | 5.3 | 5.7 | 7.0 | 8.4 | 8.4 | 9.2 | 9.0 | 10.1
